This is an account of results in patent US20240139178A1, “METHOD FOR MANUFACTURING COMPOSITION FOR COMPOSITION FOR INCREASING COGNITIVE FUNCTION” (priority 2018, published 2024).

Test [1] deals with T1, Aβ1-42 (Homo sapiens, UniProt P05067).
T1 construct: human A81-42 monomers (UniProtKB-P05067, a.a. 672-713)
Briefly: Aβ aggregation inhibition test (Thioflavin T analysis). The following applies: 20 μM compound, 50 μM Aβ, 3 days; relative to control (100%). The test is classed as biochemical. On the procedure:
Then, the compound was used diluted by using 6% DMSO (in DW) and used.
Triflupromazine hydrochloride (triflupromazine used in all the examples below is triflupromazine hydrochloride) was dissolved to a concentration of 5 mM in DMSO. The compound was then used diluted with 6% DMSO (in DW).
The Aβ solution was prepared by dissolving human A81-42 monomers (UniProtKB-P05067, a.a. 672-713) to 10 mM concentration in DMSO. Thereafter, the mixture was diluted to 100 uM by using DW and stored on ice.
On the other hand, Thioflavin-T (Sigma-Aldrich) was dissolved to the concentration of 5 mM in 50 mM glycine buffer (pH 8.5). Then, the resultant solution was diluted to the concentration of 50 μM by using 50 mM glycine buffer (pH 8.5) and stored in the dark while light was blocked.
(§1) 25 μL of the reaction solution in which the reaction was completed was added to each well of a 96-well fluorescence assay plate, and 75 μL of the Thioflavin-T solution prepared above was added to each well. After reacting for 5 minutes in the dark at room temperature, fluorescence values were measured at excitation 450 nm and emission 485 nm by using a multi-mode microplate reader.
The fluorescence value of the group (control) treated with Aβ alone and aggregated for 72 hours was considered as 100%, and the measured fluorescence values were expressed as a relative value thereto, and results thereof are shown in FIG. 1 and FIG. 2.
In addition, by performing the same test as described above for 20 μM of various compounds using 50 μM Aβ, the degree of Aβ aggregation was measured, and the result is expressed as a relative value for control (100%).

Test [2] has as its target T1, Aβ1-42. Briefly: Aβ disaggregation test of rifamycin-based derivatives by Thioflavin T analysis. Type of test: biochemical. The note with it: 50 μM compound, 50 μM Aβ1-42 aggregated 3 days, then 2 days of reaction. On the procedure:
The compound was then used diluted with 6% DMSO (in DW).
The Aβ solution was prepared by dissolving Aβ 1-42 monomers to the concentration of 10 mM in DMSO. Thereafter, the mixture was diluted to 100 μM by using DW and stored on ice.
On the other hand, Thioflavin-T was dissolved to the concentration of 5 mM in 50 mM glycine buffer (pH 8.5). Then, the resultant solution was diluted to the concentration of 50 μM by using 50 mM glycine buffer (pH 8.5) and stored in the dark while light was blocked.
The Aβ solution prepared in Example 3.1. was placed in 1.5 mL microcentrifuge tubes, each having 50 μM of the Aβ solution, and then reacted at 37° C. for 72 hours.
Each 1.5 mL microcentrifuge tube was treated with 50 μM rifapentine-based derivatives, followed by reaction at 37° C. for 48 hours.
as §1
The fluorescence value of the group (control) treated with Aβ alone and aggregated for 72 hours by treating only Aβ was considered as 100%, and the measured fluorescence values were expressed as a relative value thereto, and results thereof are shown in FIG. 7.

T1 sequence (P05067 672-713): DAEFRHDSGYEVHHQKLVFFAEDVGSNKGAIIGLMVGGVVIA

For `CN1CCN(C2=Nc3cc(Cl)ccc3Nc3ccccc32)CC1` [Clozapine], the “Aggregation (%)” value in test [1] stood at 99.14%.

For “3-[[[4-(2-Methylpropyl)-1-piperazinyl]imino]methyl]rifamycin [rifamdin]”, the “Aβ disaggregation effect compared to the control” value in test [2] is recorded as “about 50%”.

Turning to `CC12CC3CC(C)(C1)CC(N)(C3)C2` [Mementine], in test [1], the “Aggregation (%)” value is listed as 95.84%.

Regarding `CO[C@H]1/C=C/O[C@@]2(C)Oc3c(C)c(O)c4c(O)c(cc(OCC(=O)O)c4c3C2=O)NC(=O)/C(C)=C\C=C\[C@H](C)[C@H](O)[C@@H](C)[C@@H](O)[C@@H](C)[C@H](OC(C)=O)[C@@H]1C` [rifamycin B, {[(2S,12Z,14E,16S,17S,18R,19R,20R,21S,22R,23S,24E)-21-(acetyloxy)-5,6,17,19-tetrahydroxy-23-methoxy-2,4,12,16,18,20,22-heptamethyl-1,11-dioxo-1,2-dihydro-2,7-(epoxypentadeca[1,11,13]trienoimino)naphtho[2,1-b]furan-9-yl]oxy}acetic acid], in test [2], the “Aβ disaggregation effect compared to the control” value is recorded as “significant disaggregation did not occur”.

Consider `CO[C@H]1/C=C/O[C@@]2(C)Oc3c(C)c(O)c4c(O)c(c(/C=N/N5CCN(C)CC5)c(O)c4c3C2=O)NC(=O)/C(C)=C\C=C\[C@H](C)[C@H](O)[C@@H](C)[C@@H](O)[C@@H](C)[C@H](OC(C)=O)[C@@H]1C` [rifampicin, 5,6,9,17,19,21-hexahydroxy-23-methoxy-2,4,12,16,18,20,22-heptamethyl-8-[N-(4-methyl-1-piperazinyl) formimidoyl]-2,7-(epoxypentadeca [1,11,13]trienimino)-naphtho [2,1-b] furan-1,11 (2H) -dione 21-acetate], for which, in test [2], the “Aβ disaggregation effect compared to the control” value is “about 50%”.

For `COC1C=COC2(C)Oc3c(C)c(O)c4c(O)c(c5c(c4c3C2=O)=NC2(CCN(CC(C)C)CC2)N=5)NC(=O)C(C)=CC=CC(C)C(O)C(C)C(O)C(C)C(OC(C)=O)C1C` [ripabutin, (S,12E,14S,15R,16S,17R,18R,19R,20S,21S,22E,24Z)-6,16,18,20-tetrahydroxy-1′-isobutyl-14-methoxy-7,9,15,17,19,21,25-heptamethyl-spiro[9,4-(epoxypentadeca[1,11,13]trienimino)-2H-furo[2″,3″:7,8]naphth[1,2-dimidazole-2,4″-piperidine]-5,10,26-(3H,9H)-trione-16-acetate], the “Aβ disaggregation effect compared to the control” value in test [2] is “about 50%”.

As for `CN1CCN(CC/C=C2/c3ccccc3Sc3ccc(S(=O)(=O)N(C)C)cc32)CC1` [Thiothixene], the “Aggregation (%)” value in test [1] was 125.23%.

Regarding `Cc1nc2n(c(=O)c1CCN1CCC(c3noc4cc(F)ccc34)CC1)CCCC2` [Risperidone], the “Aggregation (%)” value in test [1] is recorded as 117.68%.

As to `CO[C@H]1/C=C/O[C@@]2(C)Oc3c(C)c(O)c4c(O)c(cc(O)c4c3C2=O)NC(=O)/C(C)=C\C=C\[C@H](C)[C@H](O)[C@@H](C)[C@@H](O)[C@@H](C)[C@H](OC(C)=O)[C@@H]1C` [rifamycin SV, 5,6,9,17,19,21-Hexahydroxy-23-methoxy-2,4,12,16,18,20,22-heptamethyl-2,7-(epoxypentadeca[1,11,13]trienimino)naphtho[2,1-b]furan-1,11(2H)-dione 21-acetate], in test [2], the “Aβ disaggregation effect compared to the control” value is “about 50%”.

As to `CCN1CCCC1CNC(=O)c1cc(S(=O)(=O)CC)c(N)cc1OC` (stereo not drawn) [Amisulpride], the “Aggregation (%)” value in test [1] was found to be 96.29%.

Regarding `CO[C@H]1/C=C/O[C@@]2(C)Oc3c(C)c(O)c4c(O)c(c5c(nc6cc(C)ccn65)c4c3C2=O)NC(=O)/C(C)=C\C=C\[C@H](C)[C@H](O)[C@@H](C)[C@@H](O)[C@@H](C)[C@H](OC(C)=O)[C@@H]1C` (relative stereo) [rifaximin, [2S-(2R*,16Z,18E,20R*,21R*,22S*,23S*,24S*,25R*,26S*,27R*,22E)]-25-acetyloxy) -5,6,21,23-tetrahydroxy-27-methoxy-2,4,11,16,20,22,24,26-octamethyl-2,7-(epoxypentadeca [1,11,13] trienimino) benzofuro [4,5-e] pyrido [1,2-a] benzimidazole-1,15 (2H) -dione], the “Aβ disaggregation effect compared to the control” value in test [2] was “significant disaggregation did not occur”.

As to `CO[C@H]1/C=C/O[C@@]2(C)Oc3c(C)c(O)c4c(c3C2=O)C(=O)C=C(NC(=O)/C(C)=C\C=C\[C@H](C)[C@H](O)[C@@H](C)[C@@H](O)[C@@H](C)[C@H](OC(C)=O)[C@@H]1C)C4=O` [rifamycin S, 5,17,19,21-tetrahydroxy-23-methoxy-2,4,12,16,18,20,22-heptamethyl-2,7-(epoxypentadeca[1,11,13]trienimino)naphtho[2,1-b]furan-1,6,9,11(2H)-tetrone 21-acetate], the “Aβ disaggregation effect compared to the control” value in test [2] came out at 25%.
